Data as given in paper PMC6934184, “Selective DNA-PKcs inhibition extends the therapeutic index of localized radiotherapy and chemotherapy” (The Journal of Clinical Investigation, 2019).

Molecular target: T1, CSNK1G3 (CK1 gamma 3) (Homo sapiens, UniProt Q9Y6M4)
T1 construct: purchased Thermo Fisher Scientific (Life Technologies) SelectScreen
Test: SelectScreen Z'LYTE
Format: biochemical
Procedure, shortened: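 NU5455 was profiled across the SelectScreen Broad panel of kinase activity and binding assays. Z'LYTE reactions such as CSF1R ran at apparent Km ATP, while the Adapta CAMK1 assay used ATP listed as 10. Values are given as percent.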

T1 sequence (Q9Y6M4 whole entry): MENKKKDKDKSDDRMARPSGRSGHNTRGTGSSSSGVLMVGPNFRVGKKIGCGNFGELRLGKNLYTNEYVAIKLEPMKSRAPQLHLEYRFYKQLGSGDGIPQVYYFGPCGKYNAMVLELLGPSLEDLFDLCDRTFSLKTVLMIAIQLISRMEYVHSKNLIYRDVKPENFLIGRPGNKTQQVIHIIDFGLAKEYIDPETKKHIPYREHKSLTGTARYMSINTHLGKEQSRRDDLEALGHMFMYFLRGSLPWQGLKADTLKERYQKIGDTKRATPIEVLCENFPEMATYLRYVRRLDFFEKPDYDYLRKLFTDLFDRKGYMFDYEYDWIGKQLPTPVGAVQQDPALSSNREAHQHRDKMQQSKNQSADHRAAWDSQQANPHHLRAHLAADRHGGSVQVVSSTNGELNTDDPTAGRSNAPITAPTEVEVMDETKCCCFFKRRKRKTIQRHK

With `CN(C(=O)CN1CCOCC1)c1ccc2sc3c(-c4cccc5c(=O)cc(N6CC7CCC(C6)O7)oc45)cccc3c2c1` [NU5455] the inhibition at 1 µM was 4.2%.
